This is an account of results in patent US20250382322A1, “DIAGNOSTICS FOR DETECTING ECTO-5'-NUCLEOTIDASE (CD73)” (EBERHARD KARLS UNIVERSITÄT TÜBINGEN, priority 2022, published 2025).

The assay addresses T1, native membrane-anchored human CD73 (in MDA-MB-231 cell membrane preparations) (Homo sapiens, UniProt P21589).
T1 construct: membrane preparations of MDA-MB-231 cells; endogenous in cells; host or cells: MDA-MB-231 cell membrane preparations
T1 sequence (P21589 27-549 limits assumed): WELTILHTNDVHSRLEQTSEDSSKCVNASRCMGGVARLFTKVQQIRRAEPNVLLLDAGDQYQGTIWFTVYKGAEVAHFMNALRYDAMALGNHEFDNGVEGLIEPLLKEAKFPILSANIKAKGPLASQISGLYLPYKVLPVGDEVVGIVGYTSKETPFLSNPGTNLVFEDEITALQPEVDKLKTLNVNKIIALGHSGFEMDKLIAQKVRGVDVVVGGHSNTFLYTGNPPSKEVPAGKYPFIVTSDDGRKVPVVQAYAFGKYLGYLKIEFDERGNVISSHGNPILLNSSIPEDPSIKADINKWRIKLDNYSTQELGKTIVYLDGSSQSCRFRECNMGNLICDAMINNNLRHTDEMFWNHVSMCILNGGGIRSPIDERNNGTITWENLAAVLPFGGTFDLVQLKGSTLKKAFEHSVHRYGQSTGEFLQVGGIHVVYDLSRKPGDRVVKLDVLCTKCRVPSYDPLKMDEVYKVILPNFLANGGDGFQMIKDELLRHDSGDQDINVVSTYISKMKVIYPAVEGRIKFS
In words: CD73 enzyme inhibition assay with [2,8-3H]AMP, MDA-MB-231 membrane preparations. Type of assay: biochemical. As to conditions: [2,8-3H]AMP (5 μM) as substrate, read-out: Human CD73 MDA-MB-231 Ki ± SEM. The protocol:
Compound 2b, its precursor 1, and 20 were investigated for their CD73-inhibitory potency using tritium-labeled AMP as a substrate.^20 After incubation with CD73, non-hydrolyzed substrate and inorganic phosphate were precipitated using a solution of lanthanum chloride, and the precipitate was separated from the solution containing the reaction product [2,8-^3H]adenosine by filtration through GF/B glass fiber filters (WhatmanTM GE Healthcare, Chicago, IL, USA) using a cell harvester (M-48, Brandel, Gaitherburg, MD, USA). The filtrates (ca. 1.8 mL each) were transferred to scintillation vials, scintillation cocktail ULTIMA Gold XR (PerkinElmer, Waltham, MA, USA) was added (5 mL), and the radioactivity esd quantified by scintillation counting. CD73 preparations were (1) recombinant soluble human CD73,^13 (2) recombinant soluble rat CD73,^21 both expressed in Spodoptera frugiperda 9 (Sf) cells, (3) membrane preparations of MDA-MB-231 cells,^16 a human triple-negative breast cancer cell line with high expression of CD73,^18 and (4) membrane preparations of the 4T1.2 cell line, a mouse CD73-expressing breast cancer cell line.^22 The potency of the compounds was determined by measurements of full concentration-inhibition curves. K values were calcuated from the obtained IC50 values employing the Cheng-Prusoff equation.^23 […]

Broadly, the Ki is the equilibrium dissociation constant of an inhibitor or competing ligand from its target. On to `CCCN(Cc1ccc(-c2cn(CCF)nn2)cc1)c1nc(Cl)nc2c1ncn2[C@@H]1O[C@H](COP(=O)(O)CP(=O)(O)O)C(O)C1O` (some centres unmarked) [Compound 2], for which the Ki came to 2.78 ± 0.47 nM. `O=C(NCCCCCCNC(=O)c1ccc2c(c1)C1(OC2=O)c2ccc(O)cc2Oc2cc(O)ccc21)c1ccc(CNc2nc(Cl)nc3c2ncn3[C@@H]2O[C@H](COP(=O)(O)CP(=O)(O)O)[C@@H](O)[C@H]2O)cc1` [Compound 20, (((((2R,3S,4R,5R)-5-(2-chloro-6-((4-((6-(3′,6′-dihydroxy-3-oxo-3H-spiro[isobenzofuran-1,9′-xanthene]-6-carboxamido)-hexyl)carbamoyl)benzyl)amino)-9H-purin-9-yl)-3,4-dihydroxytetrahydrofuran-2-yl)methoxy)(hydroxy)phosphoryl)methyl)phosphonic acid]: the Ki came out at 6.76 ± 1.25 nM.
